Measurements reported in ChEMBL document CHEMBL4007407, “Carbonic anhydrases from Trypanosoma and Leishmania as anti-protozoan drug targets” (Bioorg Med Chem, 2017).

Columns and labels:
[1] = Inhibition of Trypanosoma cruzi N-terminal His-tagged full-length glucose-6-phosphate dehydrogenase expressed in Escherichia coli BL21(DE3) using glucose-6-phosphate as substrate in presence of NADP+ by spectrophotometric method
[2] = Inhibition of Trypanosoma cruzi SUMO-tagged glucose-6-phosphate dehydrogenase expressed in Escherichia coli BL21(DE3) using glucose-6-phosphate as substrate by diaphorase enzyme coupled fluorescence assay
[3] = Inhibition of Trypanosoma cruzi hexokinase
[4] = Inhibition of Leishmania amazonensis squalene synthase
[5] = test system: Leishmania; experiment: Antileishmanial activity against Leishmania in visceral leishmaniasis patient assessed as cure incidents at 10 to 15 mg/kg, iv administered as single dose as lipid formulations relative to control; assay type: functional
[6] = Inhibition of Leishmania major trypanothione reductase
[7] = Inhibition of Trypanosoma cruzi glucose-6-phosphate dehydrogenase
[8] = test system: Leishmania; experiment: Antileishmanial activity against Leishmania in mucocutaneous leishmaniasis patient assessed as cure incidents at 4 mg/kg relative to control; assay type: functional
[9] = test system: Trypanosoma cruzi; experiment: Antitrypanosomal activity against Trypanosoma cruzi Tulahuen amastigotes expressing beta-galactosidase gene infected in mouse NIH/3T3 cells after 4 days; assay type: functional, cell-based; conditions: NIH3T3, 96 h
[10] = Inhibition of Trypanosoma cruzi strain CL Brener N-terminal His6-tagged glucokinase expressed in Escherichia coli using D-glucose as substrate in presence of ATP by colorimetric assay
[11] = Inhibition of Trypanosoma cruzi strain CL Brener N-terminal His6-tagged glucokinase expressed in Escherichia coli using D-glucose as substrate in presence of ATP by Lineweaver-Burk Plot analysis
[12] = Mixed-type inhibition of Trypanosoma cruzi epimastigotes hexokinase using D-glucose as substrate in presence of ATP by Lineweaver-Burk Plot analysis

With `C[C@]12CC[C@H](O)C[C@@H]1CC[C@@H]1[C@@H]2CC[C@]2(C)C(=O)CC[C@@H]12` [EPIANDROSTERONE] the IC50 [1] was 3 µM and the Ki [1] was 3.2 µM.

For `C[C@]12CC[C@H](O)C[C@@H]1CC[C@@H]1[C@@H]2CC[C@]2(C)C(=O)[C@H](Br)C[C@@H]12` [16.ALPHA.-BROMOEPIANDROSTERONE], the IC50 [2] was 0.086 µM.

Work on `CCn1c2ccccc2c2cc(NC(P(=O)(O)O)P(=O)(O)O)ccc21` yielded an IC50 [3] of 6.4 µM and a Ki [3] of 2.8 µM.

In the case of `COCCCOc1ccc(C#C[C@@]2(O)CN3CCC2CC3)c(Cc2ccccc2)n1`, the IC50 [4] is reported as 0.9 µM and the Ki [4] is reported as 0.0012 µM.

In the case of `C[C@@H]1[C@H](O)[C@@H](C)/C=C/C=C/C=C/C=C/C=C/C=C/C=C/[C@H](O[C@@H]2O[C@H](C)[C@@H](O)[C@H](N)[C@@H]2O)C[C@@H]2O[C@](O)(C[C@@H](O)C[C@@H](O)[C@H](O)CC[C@@H](O)C[C@@H](O)CC(=O)O[C@H]1C)C[C@H](O)[C@H]2C(=O)O` [AMPHOTERICIN B], the Activity [5] is reported as 93.3%.

Compound `O=C(CCl)N1c2ccccc2Oc2ccc(Cl)cc21` has an IC50 [6] of 7.6 µM.

`O=C(CCl)N1c2ccccc2COc2ccc(Cl)cc21` gave an IC50 [6] of 7.2 µM.

For `CO[C@H]1CN(c2ccc(C#C[C@@]3(O)CN4CCC3CC4)c(Cc3ccccc3)n2)C[C@H]1O`, the IC50 [4] was 6.7 µM and the Ki [4] was 0.0052 µM.

`CCCCCCCn1cnc2sc(C(N)=O)c(C)c2c1=O` showed an IC50 [7] of 4.9 µM.

Work on `Cc1ccc(Nc2ncc3c(n2)CCCC3=O)cc1` yielded an IC50 [7] of 0.48 µM.

With `N=C(N)c1ccc(OCCCCCOc2ccc(C(=N)N)cc2)cc1` [PENTAMIDINE] the Activity [8] was 90 - 95%.

`O=C(N[C@@H]1[C@@H](O)[C@H](O)[C@@H](CO)O[C@@H]1O)c1ccccc1` showed an IC50 [9] of 48.7 µM, an IC50 [10] of 16.1 µM and a Ki [11] of 32 µM.

For `O=C(CCl)N1c2ccccc2Sc2ccccc21`, the IC50 [6] was 9.3 µM.

Work on `O=P(O)(O)C(O)(Cc1ccncc1)P(=O)(O)O` yielded a Ki [12] of 4.3 µM.

Compound `O=C(N[C@@H]1[C@@H](O)[C@H](O)[C@@H](CO)O[C@@H]1O)OCc1ccccc1` has an IC50 [9] of 16.1 µM, an IC50 [10] of 48.7 µM and a Ki [11] of 0.71 µM.

With `C[C@]12CC[C@H](O)CC1=CC[C@@H]1[C@@H]2CC[C@]2(C)C(=O)[C@H](Br)C[C@@H]12` the IC50 [2] was 0.216 µM.

With `O=P(O)(O)C(Nc1cccc(Br)c1)P(=O)(O)O` the Ki [12] was 1.2 µM.
